Tested on: CaV1.2
Assay: Cell-attached single-channel recording of CaV1.2 variants in HEK 293T/17 cells
Format: cell-based, rat
Conditions: 110 mM Ba2+, 0 mV from -80 mV; n=8; mean±SEM (Table S2)
Protocol: HEK 293T/17 cells (ATCC) were maintained as previously described ([15], [53]). For electrophysiology, Lipofectamine 2000 (Invitrogene) or JetPrime (Polyplus Transfection) was used to transiently transfect cells with indicated plasmid DNAs in 35 mm dishes. For biochemistry experiments, transient transfection of HEK 293T/17 cells in […] dishes was achieved using either JetPrime or, as previously described ([15], [53]), the calcium phosphate method. Cells were cotransfected with plasmids encoding the pore-forming α11.2 subunit N-terminally tagged with eCFP ([15], [53]) or mCherry ([54]) plus pGWIH-based plasmids encoding the auxiliary subunits rat β2A ([55]) and rabbit α2δ-1 ([56]) as previously described ([15], [53]). For all transfections, equimolar ratio of 1:1:1 was used for CaV1.2 channel subunits and later further optimized (JetPrime) for CaM (at ratio of 1:1:1:0.5 for α11.2:β2A:α2δ−1:CaM). Rat brain α11.2 (GenBank ID: M67515.1) N-terminally fused to eCFP was utilized as previously described ([15]). The point mutations in plasmids encoding single-residue I1654A, Y1657D (this report), and K1662E exchanges in α11.2 were generated via QuikChange II as previously described ([15], [53]) using N-terminally eCFP ([15], [53]) or mCherry tagged ([54]) rat brain α11.2 plasmid template DNAs. We studied CDI using mCherry-tagged α11.2 subunit coexpressed with the other, untagged CaV1.2 subunits and WT CaM or the calmodulin 34 mutant CaM34 (kindly provided by JP Adelman, ([8])). For some biochemical experiments shown in Fig. S2, YFP-tagged CaM was used ([32]).
Single-channel recordings were performed as described previously ([15], [31]). In brief, low noise raw data were recorded with an Axopatch 200B amplifier and data were sampled at 10 kHz with a low-pass filter at 2 kHz (3 dB, four pole Bessel) and digitalized with a Digidata 1440 digitizer. Recording electrodes were pulled from borosilicate capillary glass ([…]) with a Flaming/Brown micropipette puller (Model P-97, Sutter Instruments), heat polished, and coated with Sylgard (Sylgard 289) until close to the electrode tip. Electrode resistance in solution was usually 5 to 10 MΩ. To keep the membrane potential close to 0 mV the extracellular bath solution contained (in mM) 120 K-Glutamate, 25 KCl, 2 MgCl2, 1 CaCl2, 10 EGTA, 10 Hepes, and 2 Na2-ATP pH 7.4 (KOH). The intracellular pipette solution contained (in mM) 110 BaCl2 and 10 Hepes, adjusted to pH 7.4 (TEA-OH). Cells were depolarized for 2 s from a holding potential of -80 mV to 0 mV every 7 s. Event lists were created from raw Ba^2+ currents after leak and capacity transients were digitally subtracted by pClamp 10. Unitary current events were then analyzed based on the half-height criterium ([57]) using the single-channel software provided by pClamp 10.
For statistical analysis, single-channel parameters were corrected by the channel number (k), respectively, the maximum of simultaneously open channels (PMAX). The number of channels in the patch was estimated based on the observed simultaneous openings and is a precise parameter for k < 4, as included in this article and originally described by R. Horn ([58]). On average, 100 to 200 Ba^2+ current traces were recorded for each cell for each experimental condition for an appropriate statistical analysis.
Table S2. Biophysical properties of WT and Y1657D mutant CaV1.2 as determined by single channel recordings with 110 mM Ba2+. HEK 293T/17 cells were transiently transfected with eCFP-tagged rat CaV1.2 (WT versus Y1657D) plus α2δ1 and β2a. Single-channel parameter were corrected for the number of channels (k) in the patch. Availability denotes the number of active over […] traces. Popen (Po) is the open probability within active traces. Ipeak is the current flown through all channels in a patch at the time point of the current maximum and was corrected by the number of channels. Mean ensemble average (MEA) is the mean average current of all traces after being superimposed. […]

CaV1.2: WT rat brain α11.2 with α2δ1 and β2A expressed in HEK 293T/17 cells
Availability: 65±12% | IPeak: 21.2±5.3 fA | MEA (mean ensemble average): 8.5±2.4 fA | MOT (mean open time): 1.4 ± 0.2 ms | Po: 2.0±0.5% | unitary i: 0.7±0.04 pA

Source: paper PMC9764201, “Half-calcified calmodulin promotes basal activity and inactivation of the L-type calcium channel CaV1.2” (The Journal of Biological Chemistry, 2022)
